Legend:
Assay in all cases: Test B pre-/postemergence plant response
Type in all cases: in vivo
[1] = system: large crabgrass (Digitaria sanguinalis)
Procedure, shortened: (§1)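 Seeds sown in loam–sand blend were treated preemergence, and plants at 2–18 cm (1- to 4-leaf stage) in peat-based medium were treated postemergence; compounds were formulated in non-phytotoxic solvent with surfactant. After 13–15 days in greenhouse, response was visually rated against controls, 0 (no effect) to 100 (complete control).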

corn (Zea mays) = system: corn (Zea mays)
Procedure, shortened: as §1

[2] = system: blackgrass (Alopecurus myosuroides)
Procedure, shortened: as §1

[3] = system: cocklebur (Xanthium strumarium); conditions: Preemergence
Procedure, shortened: as §1

[4] = system: velvetleaf (Abutilon theophrasti)
Procedure, shortened: as §1

[5] = system: green foxtail (Setaria viridis)
Procedure, shortened: as §1

[6] = system: johnsongrass (Sorghum halepense)
Procedure, shortened: as §1

[7] = system: morningglory (Ipomoea coccinea)
Procedure, shortened: as §1

[8] = system: ragweed (common ragweed, Ambrosia elatior)
Procedure, shortened: as §1

[9] = system: Italian ryegrass (Lolium multiflorum)
Procedure, shortened: as §1

[10] = system: goosegrass (Eleusine indica)
Procedure, shortened: as §1

kochia (Kochia scoparia) = system: kochia (Kochia scoparia)
Procedure, shortened: as §1

[11] = system: giant foxtail (Setaria faberii)
Procedure, shortened: as §1

soybean (Glycine max) = system: soybean (Glycine max)
Procedure, shortened: as §1

[12] = Postemergence, 31 g ai/ha, 0 to 100 scale (0 no effect, 100 complete control)
[13] = Postemergence, 62 g ai/ha, scale 0 to 100 (0 no effect, 100 complete control)
[14] = Postemergence, 125 g ai/ha, scale 0 (no effect) to 100 (complete control), 13 to 15 days
[15] = Postemergence, 250 g ai/ha, scale 0 to 100 (0 no effect, 100 complete control), 13 to 15 days
[16] = Preemergence, 31 g ai/ha, scale 0 to 100 (0 no effect, 100 complete control)
[17] = Preemergence, 62 g ai/ha, scale 0 to 100 (0 no effect, 100 complete control)
[18] = Preemergence, 125 g ai/ha, scale 0 to 100, 0 no effect, 100 complete control
[19] = Preemergence, 250 g ai/ha, 0 to 100 scale

## CCCCn1c(-c2cc(F)cc(F)c2)ncc(C(=O)C2=C(O)C3CCC(C3)C2=O)c1=O (stereo not drawn) [Compound 245]
[1]; [12]
  Plant response rating, Crabgrass, Large: 80
[1]; [13]
  Plant response rating, Crabgrass, Large: 100
[1]; [14]
  Plant response rating, Crabgrass, Large: 100
[1]; [15]
  Plant response rating, Crabgrass, Large: 100
[1]; [16]
  Plant response rating, Crabgrass, Large: 60
[1]; [17]
  Plant response rating, Crabgrass, Large: 100
[1]; [18]
  Plant response rating, Crabgrass, Large: 100
[1]; [19]
  Crabgrass, Large plant response rating: 100
Corn (Zea mays); [12]
  Plant response rating, Corn: 100
Corn (Zea mays); [13]
  Plant response rating, Corn: 100
Corn (Zea mays); [14]
  Plant response rating, Corn: 100
Corn (Zea mays); [15]
  Plant response rating, Corn: 100
Corn (Zea mays); [16]
  Plant response rating, Corn: 0
Corn (Zea mays); [17]
  Plant response rating, Corn: 5
Corn (Zea mays); [18]
  Plant response rating, Corn: 25
Corn (Zea mays); [19]
  Corn plant response rating: 65
[2]; [12]
  Plant response rating, Blackgrass: 40
[2]; [13]
  Plant response rating, Blackgrass: 70
[2]; [14]
  Plant response rating, Blackgrass: 80
[2]; [15]
  Plant response rating, Blackgrass: 80
[2]; [16]
  Plant response rating, Blackgrass: 0
[2]; [17]
  Plant response rating, Blackgrass: 5
[2]; [18]
  Plant response rating, Blackgrass: 30
[2]; [19]
  Blackgrass plant response rating: 45
[3]; 31 g ai/ha, scale 0 to 100 (0 no effect, 100 complete control)
  Plant response rating, Cocklebur: 0
[3]; 62 g ai/ha, scale 0 to 100 (0 no effect, 100 complete control)
  Plant response rating, Cocklebur: 0
[3]; 125 g ai/ha, scale 0 to 100, 0 no effect, 100 complete control
  Plant response rating, Cocklebur: 98
[3]; 250 g ai/ha, 0 to 100 scale
  Cocklebur plant response rating: 100
[4]; [12]
  Plant response rating, Velvetleaf: 100
[4]; [13]
  Plant response rating, Velvetleaf: 100
[4]; [14]
  Plant response rating, Velvetleaf: 100
[4]; [15]
  Plant response rating, Velvetleaf: 100
[4]; [16]
  Plant response rating, Velvetleaf: 95
[4]; [17]
  Plant response rating, Velvetleaf: 100
[4]; [18]
  Plant response rating, Velvetleaf: 100
[4]; [19]
  Velvetleaf plant response rating: 100
[5]; [12]
  Plant response rating, Foxtail, Green: 85
[5]; [13]
  Plant response rating, Foxtail, Green: 98
[5]; [14]
  Plant response rating, Foxtail, Green: 100
[5]; [15]
  Plant response rating, Foxtail, Green: 100
[5]; [16]
  Plant response rating, Foxtail, Green: 0
[5]; [17]
  Plant response rating, Foxtail, Green: 0
[5]; [18]
  Plant response rating, Foxtail, Green: 75
[5]; [19]
  Foxtail, Green plant response rating: 100
[6]; [12]
  Plant response rating, Johnsongrass: 100
[6]; [13]
  Plant response rating, Johnsongrass: 100
[6]; [14]
  Plant response rating, Johnsongrass: 100
[6]; [15]
  Plant response rating, Johnsongrass: 100
[6]; [16]
  Plant response rating, Johnsongrass: 65
[6]; [17]
  Plant response rating, Johnsongrass: 75
[6]; [18]
  Plant response rating, Johnsongrass: 80
[6]; [19]
  Johnsongrass plant response rating: 100
[7]; [12]
  Plant response rating, Morningglory: 90
[7]; [13]
  Plant response rating, Morningglory: 100
[7]; [14]
  Plant response rating, Morningglory: 100
[7]; [15]
  Plant response rating, Morningglory: 100
[7]; [16]
  Plant response rating, Morningglory: 0
[7]; [17]
  Plant response rating, Morningglory: 0
[7]; [18]
  Plant response rating, Morningglory: 65
[7]; [19]
  Morningglory plant response rating: 100
[8]; [12]
  Plant response rating, Ragweed: 95
[8]; [13]
  Plant response rating, Ragweed: 98
[8]; [14]
  Plant response rating, Ragweed: 100
[8]; [15]
  Plant response rating, Ragweed: 100
[8]; [16]
  Plant response rating, Ragweed: 75
[8]; [17]
  Plant response rating, Ragweed: 85
[8]; [18]
  Plant response rating, Ragweed: 100
[8]; [19]
  Ragweed plant response rating: 100
[9]; [12]
  Plant response rating, Ryegrass, Italian: 40
[9]; [13]
  Plant response rating, Ryegrass, Italian: 50
[9]; [14]
  Plant response rating, Ryegrass, Italian: 70
[9]; [15]
  Plant response rating, Ryegrass, Italian: 85
[9]; [16]
  Plant response rating, Ryegrass, Italian: 0
[9]; [17]
  Plant response rating, Ryegrass, Italian: 0
[9]; [18]
  Plant response rating, Ryegrass, Italian: 0
[9]; [19]
  Ryegrass, Italian plant response rating: 40
[10]; [12]
  Plant response rating, Goosegrass: 98
[10]; [13]
  Plant response rating, Goosegrass: 98
[10]; [14]
  Plant response rating, Goosegrass: 100
[10]; [15]
  Plant response rating, Goosegrass: 100
[10]; [16]
  Plant response rating, Goosegrass: 95
[10]; [17]
  Plant response rating, Goosegrass: 100
[10]; [18]
  Plant response rating, Goosegrass: 100
[10]; [19]
  Goosegrass plant response rating: 100
Kochia (Kochia scoparia); [12]
  Plant response rating, Kochia: 85
Kochia (Kochia scoparia); [13]
  Plant response rating, Kochia: 100
Kochia (Kochia scoparia); [14]
  Plant response rating, Kochia: 100
Kochia (Kochia scoparia); [15]
  Plant response rating, Kochia: 100
Kochia (Kochia scoparia); [16]
  Plant response rating, Kochia: 0
Kochia (Kochia scoparia); [17]
  Plant response rating, Kochia: 45
Kochia (Kochia scoparia); [18]
  Plant response rating, Kochia: 98
Kochia (Kochia scoparia); [19]
  Kochia plant response rating: 100
[11]; [12]
  Plant response rating, Foxtail, Giant: 98
[11]; [13]
  Plant response rating, Foxtail, Giant: 100
[11]; [14]
  Plant response rating, Foxtail, Giant: 100
[11]; [15]
  Plant response rating, Foxtail, Giant: 100
[11]; [16]
  Plant response rating, Foxtail, Giant: 0
[11]; [17]
  Plant response rating, Foxtail, Giant: 10
[11]; [18]
  Plant response rating, Foxtail, Giant: 90
[11]; [19]
  Foxtail, Giant plant response rating: 100
Soybean (Glycine max); [12]
  Plant response rating, Soybean: 95
Soybean (Glycine max); [13]
  Plant response rating, Soybean: 98
Soybean (Glycine max); [14]
  Plant response rating, Soybean: 100
Soybean (Glycine max); [15]
  Plant response rating, Soybean: 100
Soybean (Glycine max); [16]
  Plant response rating, Soybean: 0
Soybean (Glycine max); [17]
  Plant response rating, Soybean: 10
Soybean (Glycine max); [18]
  Plant response rating, Soybean: 55
Soybean (Glycine max); [19]
  Soybean plant response rating: 75

Source: patent US8952024B2, “Herbicidal pyrimidone derivatives” (E I du Pont de Nemours and Company, priority 2009, dated 2015)
